Laboratory results: patent publication US9993494B2, “Compositions and methods for treating fibrotic disease” (eFFECTOR Therapeutics, Inc., priority 2014, dated 2018)

Tested on: normal human lung fibroblasts
Test: Ribosomal profiling: translational efficiency in TGFβ-treated fibroblasts
Assay type: cell-based
Method in brief: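 Genome-wide RPF and total RNA libraries (ARTseq, RNA-Seq) were made from lysates of cycloheximide-treated, PBS-washed cells. After trimming and human-genome mapping, per-gene coding-region counts were compared between RPF and RNA for translational efficiency. Genes scoring low in either fraction were dropped.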

TGFβ
Log2 TE EEF1A1 (ENSG00000156508, 5 replicates): 1.851
change in translational profile of EEF1A1 caused by TGFβ (ENSG00000156508, Control vs. TGFβ): E (E = <1.5 to 2.5)
Log2 TE NRG1 (ENSG00000157168, 5 replicates): 1.162
change in translational profile of NRG1 caused by TGFβ (ENSG00000157168, Control vs. TGFβ): D (D = <1.0 to 1.5)
change in translational profile of ADAMTS4 caused by TGFβ (ENSG00000158859, Control vs. TGFβ): D (D = <1.0 to 1.5)
Log2 TE RPL8 (ENSG00000161016, 5 replicates): 1.353
change in translational profile of RPL8 caused by TGFβ (ENSG00000161016, Control vs. TGFβ): E (E = <1.5 to 2.5)
Log2 TE RPL26 (ENSG00000161970, 5 replicates): 1.655
change in translational profile of RPL26 caused by TGFβ (ENSG00000161970, Control vs. TGFβ): E (E = <1.5 to 2.5)
Log2 TE RPL29 (ENSG00000162244, 5 replicates): 1.589
change in translational profile of RPL29 caused by TGFβ (ENSG00000162244, Control vs. TGFβ): E (E = <1.5 to 2.5)
change in translational profile of CAMK2N1 caused by TGFβ (ENSG00000162545, Control vs. TGFβ): C (C = <−1.0 to −1.5)
Log2 TE NFIA (ENSG00000162599, 5 replicates): −1.2934
Log2 TE ARHGAP25 (ENSG00000163219, 5 replicates): 1.166
change in translational profile of IGFBP7 caused by TGFβ (ENSG00000163453, Control vs. TGFβ): E (E = <1.5 to 2.5)
Log2 TE RPL22L1 (ENSG00000163584, 5 replicates): 1.012
change in translational profile of RPL22L1 caused by TGFβ (ENSG00000163584, Control vs. TGFβ): D (D = <1.0 to 1.5)
Log2 TE PTX3 (ENSG00000163661, 5 replicates): −1.576
Log2 TE RPL9 (ENSG00000163682, 5 replicates): 1.613
change in translational profile of RPL9 caused by TGFβ (ENSG00000163682, Control vs. TGFβ): E (E = <1.5 to 2.5)
Log2 TE TKT (ENSG00000163931, 5 replicates): 1.142
Log2 TE GUCY1A3 (ENSG00000164116, 5 replicates): −1.932
Log2 TE RHOBTB3 (ENSG00000164292, 5 replicates): −1.529
change in translational profile of RHOBTB3 caused by TGFβ (ENSG00000164292, Control vs. TGFβ): B (B = <−1.5 to −2.5)
Log2 TE TLR3 (ENSG00000164342, 5 replicates): −1.371
Log2 TE RPS14 (ENSG00000164587, 5 replicates): 1.684
change in translational profile of HCN1 caused by TGFβ (ENSG00000164588, Control vs. TGFβ): D (D = <1.0 to 1.5)
Log2 TE WBSCR27 (ENSG00000165171, 5 replicates): 1.116
change in translational profile of RPL36AL caused by TGFβ (ENSG00000165502, Control vs. TGFβ): D (D = <1.0 to 1.5)
Log2 TE RPL27A (ENSG00000166441, 5 replicates): 2.09
change in translational profile of RPL27A caused by TGFβ (ENSG00000166441, Control vs. TGFβ): F (F = >2.5)
change in translational profile of RP11-382A20.3.1 caused by TGFβ (ENSG00000166503, Control vs. TGFβ): C (C = <−1.0 to −1.5)
change in translational profile of ANKDD1A caused by TGFβ (ENSG00000166839, Control vs. TGFβ): C (C = <−1.0 to −1.5)
Log2 TE RPL13 (ENSG00000167526, 5 replicates): 1.465
change in translational profile of RPL13 caused by TGFβ (ENSG00000167526, Control vs. TGFβ): E (E = <1.5 to 2.5)
Log2 TE EEF2 (ENSG00000167658, 5 replicates): 2.323
change in translational profile of EEF2 caused by TGFβ (ENSG00000167658, Control vs. TGFβ): F (F = >2.5)
Log2 TE RPSA (ENSG00000168028, 5 replicates): 1.359
Log2 TE TET2 (ENSG00000168769, 5 replicates): 1.377
Log2 TE ZNF608 (ENSG00000168916, 5 replicates): −1.59
Log2 TE SLC25A6 (ENSG00000169100, 5 replicates): 1.909
Log2 TE THBS3 (ENSG00000169231, 5 replicates): 1.188
Log2 TE CA5B (ENSG00000169239, 5 replicates): −1.791
change in translational profile of CA5B caused by TGFβ (ENSG00000169239, Control vs. TGFβ): B (B = <−1.5 to −2.5)
Log2 TE KIAA1024 (ENSG00000169330, 5 replicates): 2.216
change in translational profile of KIAA1024 caused by TGFβ (ENSG00000169330, Control vs. TGFβ): F (F = >2.5)
Log2 TE CRTAP (ENSG00000170275, 5 replicates): 1.022
Log2 TE TMC7 (ENSG00000170537, 5 replicates): 1.745
Log2 TE MURC (ENSG00000170681, 5 replicates): 3.678
change in translational profile of MURC caused by TGFβ (ENSG00000170681, Control vs. TGFβ): F (F = >2.5)
change in translational profile of HTRA3 caused by TGFβ (ENSG00000170801, Control vs. TGFβ): C (C = <−1.0 to −1.5)
Log2 TE RPS9 (ENSG00000170889, 5 replicates): 1.6139
Log2 TE PDGFD (ENSG00000170962, 5 replicates): −1.029
Log2 TE PDE7B (ENSG00000171408, 5 replicates): −2.782
change in translational profile of PDE7B caused by TGFβ (ENSG00000171408, Control vs. TGFβ): A (A = <−2.5)
Log2 TE ZNF581 (ENSG00000171425, 5 replicates): 1.45
Log2 TE LPAR3 (ENSG00000171517, 5 replicates): −2.387
change in translational profile of LPAR3 caused by TGFβ (ENSG00000171517, Control vs. TGFβ): A (A = <−2.5)
Log2 TE CTPS (ENSG00000171793, 5 replicates): 1.08
